The values below come from US20200071326A1, “TAM KINASE INHIBITORS” (Syros Pharmaceuticals, Inc., priority 2017, published 2020).

In one assay the target is T1, MERTK (Homo sapiens, UniProt Q12866).
T1 sequence (Q12866 21-999): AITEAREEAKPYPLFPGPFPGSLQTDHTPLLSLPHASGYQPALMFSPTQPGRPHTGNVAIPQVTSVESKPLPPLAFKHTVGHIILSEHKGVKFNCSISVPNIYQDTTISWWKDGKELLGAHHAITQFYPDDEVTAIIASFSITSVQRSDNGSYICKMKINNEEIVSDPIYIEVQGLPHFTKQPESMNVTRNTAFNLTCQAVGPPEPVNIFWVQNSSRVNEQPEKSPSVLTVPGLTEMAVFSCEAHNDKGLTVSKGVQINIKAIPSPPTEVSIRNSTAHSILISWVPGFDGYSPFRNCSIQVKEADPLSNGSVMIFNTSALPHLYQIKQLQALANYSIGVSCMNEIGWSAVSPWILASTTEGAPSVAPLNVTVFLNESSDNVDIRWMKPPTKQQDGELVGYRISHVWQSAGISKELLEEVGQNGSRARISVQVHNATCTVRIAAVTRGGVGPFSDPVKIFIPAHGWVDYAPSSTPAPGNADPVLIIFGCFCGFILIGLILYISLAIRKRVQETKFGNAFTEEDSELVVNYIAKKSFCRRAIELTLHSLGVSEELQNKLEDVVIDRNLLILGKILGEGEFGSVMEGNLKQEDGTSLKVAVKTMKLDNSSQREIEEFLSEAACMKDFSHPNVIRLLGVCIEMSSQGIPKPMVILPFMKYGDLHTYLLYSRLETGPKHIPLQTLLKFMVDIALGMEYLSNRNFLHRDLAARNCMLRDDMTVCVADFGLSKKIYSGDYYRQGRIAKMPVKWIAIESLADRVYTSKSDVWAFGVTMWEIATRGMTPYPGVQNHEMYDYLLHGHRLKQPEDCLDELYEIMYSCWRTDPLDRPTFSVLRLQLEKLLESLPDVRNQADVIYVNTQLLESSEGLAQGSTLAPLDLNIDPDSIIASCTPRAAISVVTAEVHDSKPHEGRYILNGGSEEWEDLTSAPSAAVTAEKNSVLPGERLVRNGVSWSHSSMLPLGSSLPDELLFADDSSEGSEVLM
Briefly: IMAP fluorescence polarization kinase assay, MERTK. Type of assay: biochemical. The note with it: ATP 2.69 μM, enzyme 1.5 nM, 240 minutes, read-out: MERTK inhibitory constant (Ki). How it is done: (§1) Activities of compounds against each of TYRO3, AXL, and MERTK as well as against FLT3, were determined using an immobilized metal ion affinity-based fluorescence polarization (“IMAP”) assay. A fluorescently-labeled substrate peptide was phosphorylated in the kinase reaction, after which a binding solution containing large trivalent metal-based nanoparticles was added and the phosphorylated substrate binds to these beads. This reduces the rotational speed of the substrate which is then detected using fluorescence polarization as a read-out.
(§2) The substrates used for each enzyme are as follows: AXL: 5F1-KKKKEEIYFFFG-NH2(SEQ ID NO:1); FLT3: 5F1-KKKKEEIYFFF-NH2 (SEQ ID NO:2); MERTK: 5F1-EFPIYDFLPAKKK-NH2 (SEQ ID NO:3); and TYRO3: 5F1-EFPIYDFLPAKKK-NH2 (SEQ ID NO:4).
(§3) This assay was performed in a 384-well, polystyrene microplate in a final volume of 8 μl. Substrate (final concentration=400 nM), ATP (final concentrations=24.7μM for AXL; 2.74 μM for FLT3; 2.69 μM for MERTK; and 54.0 μM for TYRO3), compounds and enzyme (final concentrations=2.5 nM for AXL, FLT3 and TYRO3; 1.5 nM for MERTK) were pipetted in this order into the appropriate reaction buffer (AXL: 50 mM HEPES, pH 8.0, 1 mM DTT, 10 mM MgCl2, 0.01% BRU35, 0.01% Triton X-100; FLT3: 50 mM HEPES, pH 8.0, 1 mM DTT, 10 mM MgCl2, 0.01% Triton X-100, 0.01% NP40; MERTK/TYRO3: 50 mM HEPES, pH 8.0, 1 mM DTT, 10 mM MgCl2, 0.01% Triton X-100) and incubated at room temperature for varying times (AXL, FLT3 and MERTK: 240 minutes; TYRO3: 60 minutes). IMAP binding solution was then dispensed, the plate incubated for 60 minutes at room temperature and the fluorescence polarization measured. Data were analyzed using XLfit.
Background: Polarisation of emitted light reports the rotation of a fluorescent probe.

For the next assay, the target named is T2, FLT3 (Homo sapiens, UniProt P36888).
T2 sequence (P36888 27-993): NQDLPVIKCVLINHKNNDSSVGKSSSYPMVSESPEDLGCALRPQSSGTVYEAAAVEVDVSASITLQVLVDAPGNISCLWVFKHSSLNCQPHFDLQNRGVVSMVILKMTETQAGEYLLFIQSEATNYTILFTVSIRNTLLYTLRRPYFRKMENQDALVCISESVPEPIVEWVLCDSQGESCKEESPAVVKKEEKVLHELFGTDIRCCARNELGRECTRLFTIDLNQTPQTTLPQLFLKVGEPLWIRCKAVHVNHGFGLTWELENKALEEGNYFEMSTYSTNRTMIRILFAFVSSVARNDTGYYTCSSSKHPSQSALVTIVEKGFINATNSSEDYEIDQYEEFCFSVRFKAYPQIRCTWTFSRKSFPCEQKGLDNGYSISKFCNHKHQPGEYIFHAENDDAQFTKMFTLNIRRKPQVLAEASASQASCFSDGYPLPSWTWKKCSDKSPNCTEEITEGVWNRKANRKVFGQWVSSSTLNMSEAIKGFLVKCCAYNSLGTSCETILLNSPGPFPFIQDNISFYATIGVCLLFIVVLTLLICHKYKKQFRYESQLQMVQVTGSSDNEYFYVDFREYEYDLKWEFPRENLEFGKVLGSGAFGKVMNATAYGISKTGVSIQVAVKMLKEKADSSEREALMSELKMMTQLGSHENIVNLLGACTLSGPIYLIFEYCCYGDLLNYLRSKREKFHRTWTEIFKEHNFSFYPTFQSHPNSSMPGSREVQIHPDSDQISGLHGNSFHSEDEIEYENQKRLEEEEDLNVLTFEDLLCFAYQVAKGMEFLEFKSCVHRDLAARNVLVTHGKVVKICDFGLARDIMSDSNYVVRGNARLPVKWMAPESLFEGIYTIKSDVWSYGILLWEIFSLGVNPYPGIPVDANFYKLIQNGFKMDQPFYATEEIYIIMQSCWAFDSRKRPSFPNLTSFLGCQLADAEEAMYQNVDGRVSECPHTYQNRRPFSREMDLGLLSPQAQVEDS
The assay can be described thus: IMAP fluorescence polarization kinase assay, FLT3. Type of assay: biochemical. The note with it: ATP 2.74 μM, enzyme 2.5 nM, 240 minutes, read-out: FLT3 inhibitory constant (Ki). As to the method:
as §1, §2, §3

Structures can show the parent of a compound that is named as a salt.

As a reminder, the Ki is a measure of affinity in units of concentration, obtained from inhibition or displacement. With `N[C@H]1CC[C@H](Nc2c(C(=O)NCc3ccc(-n4ccnc4)cc3)cnc3[nH]c(C4CCCC4)cc23)CC1` [Compound 126], the Ki at MERTK and at FLT3 was less than 100 nM in each case.
Regarding `CCCc1cc2c(N[C@H]3CC[C@H](N)CC3)c(-c3nccs3)cnc2[nH]1` [Compound 117], the Ki at MERTK and on FLT3 was less than 100 nM in each case.
`CCCc1cc2c(N[C@H]3CC[C@H](N)CC3)c(-c3cc(OC)ncn3)cnc2[nH]1` [Compound 122]: the Ki at MERTK and at FLT3 was less than 100 nM throughout.
For the compound `CCCc1cc2c(N[C@H]3CC[C@H](N)CC3)c(-c3ccc(S(=O)(=O)N4CCOCC4)cn3)cnc2[nH]1` [Compound 115], the Ki on MERTK and at FLT3 was less than 100 nM throughout.
`CCCc1cc2c(N[C@H]3CC[C@H](O)CC3)c(C(=O)NC3CCN(c4ncccn4)CC3)cnc2[nH]1` [Compound 104]: the Ki was less than 100 nM on MERTK and 100 to 1000 nM on FLT3.
The like results for `CCOC(C)c1cc2c(N[C@H]3CC[C@H](N)CC3)c(C(=O)Nc3ccc(F)cc3)cnc2[nH]1` (stereo partly drawn) [Compound 152] were, in that order, 100 to 1000 nM and more than 10000 nM.
In the case of `CCCc1cc2c(N[C@H]3CC[C@H](N)CC3)c(-c3ccnc(N)n3)cnc2[nH]1` [Compound 123], the inhibitory constant (Ki) at MERTK and on FLT3 was less than 100 nM throughout.
`CCCCCc1cc2c(N[C@H]3CC[C@H](N)CC3)c(C(=O)NCc3ccc(-n4ccnc4)cc3)cnc2[nH]1` [Compound 133]: the Ki was less than 100 nM on MERTK and 100 to 1000 nM on FLT3.
Turning to `CCCc1cc2c(N[C@H]3CC[C@H](N)CC3)c(-c3cc(N)ncn3)cnc2[nH]1` [Compound 116], the Ki on MERTK and on FLT3 was less than 100 nM throughout.
On to `CCCc1cc2c(N[C@H]3CC[C@H](N)CC3)c(-c3ccccn3)cnc2[nH]1` [Compound 113], for which the Ki on MERTK and on FLT3 was less than 100 nM in each case.
Turning to `CCCc1cc2c(N[C@H]3CC[C@H](N)CC3)c(-c3ccc(COC(C)C)cn3)cnc2[nH]1` [Compound 130], the inhibition constant (Ki) at MERTK and at FLT3 was less than 100 nM each time.
Take `CCCc1cc2c(N[C@H]3CC[C@H](N)CC3)c(C(=O)NC)cnc2[nH]1` [Compound 139]: the Ki at MERTK and at FLT3 was less than 100 nM throughout.
`CCC[C@H](C)c1cc2c(N[C@H]3CC[C@H](N)CC3)c(C(=O)Nc3ccc(F)cc3)cnc2[nH]1` [Compound 149]: the figures for the Ki on MERTK and at FLT3 were 100 to 1000 nM and 1000 to 10000 nM, respectively.
The like results for `CCCc1cc2c(N[C@H]3CC[C@H](N)CC3)c(C(=O)NCc3ccc(-n4ccnc4)cc3)cnc2[nH]1` [Compound 121] were, in that order, less than 100 nM and less than 100 nM.
The like results for `CCC(C)c1cc2c(N[C@H]3CC[C@H](O)CC3)c(-c3ccc(S(=O)(=O)N4CCOCC4)cn3)cnc2[nH]1` (stereo partly drawn) [Compound 159] were, in that order, 1000 to 10000 nM and more than 10000 nM.
The matching figures for `CCc1cc2c(N[C@H]3CC[C@H](N)CC3)c(C(=O)Nc3ccc(F)cc3)cnc2[nH]1` [Compound 136]: less than 100 nM and less than 100 nM.
Turning to `CCCc1cc2c(N[C@H]3CC[C@H](N)CC3)c(-c3cnn(C)c3)cnc2[nH]1` [Compound 108, (1r,4r)-N1-(5-(1-methyl-1H-pyrazol-4-yl)-2-propyl-1H-pyrrolo[2,3-b]pyridine-4-yl)cyclohexane-1,4-diamine hydrochloride], the figures for the Ki on MERTK and on FLT3 were less than 100 nM and 100 to 1000 nM, respectively.
Regarding `C#Cc1cc2c(N[C@H]3CC[C@H](N)CC3)c(C(=O)Nc3ccc(F)cc3)cnc2[nH]1` [Compound 128, [4-1(4-aminocyclohexyl)amino]-2-ethynyl-N-(4-fluorophenyl)-1H-pyrrolo[2,3-b]pyridine-5-carboxamide], the inhibitory constant (Ki) at MERTK is 100 to 1000 nM; on FLT3, less than 100 nM.
As for `CC[C@H](C)c1cc2c(N[C@H]3CC[C@H](N)CC3)c(C(=O)Nc3ccc(F)cc3)cnc2[nH]1` [Compound 156], the Ki at MERTK was less than 100 nM; at FLT3, 100 to 1000 nM.
`CCC(C)c1cc2c(N[C@H]3CC[C@H](N)CC3)c(C(=O)Nc3ccc(F)cc3)cnc2[nH]1` (stereo partly drawn) [Compound 134]: the inhibitory constant (Ki) on MERTK was less than 100 nM; on FLT3, 100 to 1000 nM.
The like results for `CCCc1cc2c(N[C@H]3CC[C@H](N)CC3)c(Br)cnc2[nH]1` [Compound 142] were, in that order, less than 100 nM and 100 to 1000 nM.
For `Cc1cc2c(N[C@H]3CC[C@H](N)CC3)c(C(=O)Nc3ccc(F)cc3)cnc2[nH]1` [Compound 103], the Ki on MERTK and on FLT3 was less than 100 nM throughout.
Consider `CCC(C)c1cc2c(N[C@H]3CC[C@H](O)CC3)c(C(=O)NC3CCN(c4ncccn4)CC3)cnc2[nH]1` (stereo partly drawn) [Compound 157], for which the inhibition constant (Ki) was 1000 to 10000 nM at MERTK and more than 10000 nM at FLT3.
The matching figures for `COC(C)c1cc2c(N[C@H]3CC[C@H](N)CC3)c(C(=O)Nc3ccc(F)cc3)cnc2[nH]1` (stereo partly drawn) [Compound 145]: 100 to 1000 nM and 1000 to 10000 nM.
The like results for `CCCC(O)c1cc2c(N[C@H]3CC[C@H](N)CC3)c(Br)cnc2[nH]1` (stereo partly drawn) [Compound 137] were, in that order, 100 to 1000 nM and 1000 to 10000 nM.
The like results for `CCCc1cc2c(N[C@H]3CC[C@H](N)CC3)c(-c3ccnc(N4CCCC4)n3)cnc2[nH]1` [Compound 118, (1r,4r)-N1-(2-propyl-5-(2-(pyrrolidin-1-yl)pyrimidin-4-yl)-1H-pyrrolo[2,3-b]pyridine-4-yl)cyclohexane-1,4-diamine hydrochloride] were, in that order, less than 100 nM and less than 100 nM.
Consider `CCCc1cc2c(N[C@H]3CC[C@H](N)CC3)c(-c3cc(N)ccn3)cnc2[nH]1` [Compound 131], for which the values for the Ki on MERTK and on FLT3 were 100 to 1000 nM and less than 100 nM, respectively.
